Measured values from the supplement of paper PMC10883282.

Legend:
Assay in all cases: relative viability vs DMSO control (72 h) (fraction); higher = more viable cells
[1] = tested on: A204
How it was run: (§1)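 Plates held 72 h at 37 °C and 5% CO2 contained sarcoma cell lines seeded in 384-well format to reach 80–90% confluence, plus 2.5 µl of serially diluted compound added after 24 h. Source plate concentrations ran from 10 mM to 0.0002 mM, with 0.1% DMSO as vehicle and a 5 µM positive control. Percent growth from ATPLite readings, averaged over up to triplicate wells, gave relative viability. Values were rescaled with 1 as full and 0 as none.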

[2] = tested on: G401
How it was run: as §1

[3] = tested on: HS729
How it was run: as §1

[4] = tested on: HT1080
How it was run: as §1

[5] = tested on: KHOS-NP
How it was run: as §1

[6] = tested on: MES-SA
How it was run: as §1

[7] = tested on: SK-LMS-1
How it was run: as §1

[8] = tested on: SW1353
How it was run: as §1

[9] = tested on: SW684
How it was run: as §1

[10] = tested on: SW872
How it was run: as §1

[11] = tested on: SYO-1
How it was run: as §1

[12] = tested on: VA-ES-BJ
How it was run: as §1

O=S(=O)(c1cccc2cnccc12)N1CCCNCC1 [Fasudil]
relative viability
Details | 0.00051 µM | 0.00152 µM | 0.00457 µM | 0.01372 µM | 0.04115 µM | 0.1235 µM | 0.3704 µM | 1.111 µM | 3.333 µM | 10 µM
[1] | 0.98 | 1.03 | 1.02 | 1.02 | 1.01 | 0.987 | 1.01 | 0.991 | 0.973 | 0.891
[2] | 0.9413 | 0.92867 | 0.943 | 0.948 | 0.945 | 0.975 | 0.972 | 0.984 | 1.01 | 1
[3] | 0.949 | 0.964 | 1.01 | 0.949 | 0.953 | 0.926 | 0.974 | 0.957 | 0.925 | 0.855
[4] | 1.03 | 1.03 | 1.066 | 1.04 | 1.03 | 1.03 | 1.06 | 1.06 | 1.07 | 1.06
[5] | 1.03 | 1.04 | 1.029 | 1.02 | 1.01 | 1.03 | 1.02 | 1.05 | 1.01 | 1.03
[6] | 0.955 | 0.967 | 0.96 | 0.967 | 0.992 | 0.967 | 0.994 | 0.987 | 0.941 | 0.895
[7] | 1.05 | 1.05 | 1.036 | 1.08 | 1.03 | 1.06 | 1.03 | 1.05 | 1.01 | 0.977
[8] | 1.01 | 1.048 | 1.03 | 1.03 | 1.0327 | 1 | 1.04 | 1.03 | 0.97 | 0.888
[9] | 1.02 | 1.02 | 0.965 | 0.945 | 0.965 | 0.986 | 1.02 | 0.95 | 0.895 | 0.761
[10] | 0.959 | 0.979 | 0.993 | 0.964 | 0.958 | 0.9735 | 0.966 | 0.9852 | 1 | 0.929
[11] | 0.95 | 0.984 | 0.954 | 0.9485 | 0.963 | 0.954 | 0.983 | 0.97 | 0.968 | 0.902
[12] | 0.961 | 0.962 | 0.974 | 0.984 | 0.945 | 0.964 | 0.981 | 0.985 | 0.978 | 0.95

CCN(CC)CCNC(=O)c1c(C)[nH]c(/C=C2\C(=O)Nc3ccc(F)cc32)c1C [Sunitinib]
Details | relative viability
[1], 0.00017 µM | 1.06
[1], 0.00051 µM | 1.03
[1], 0.00152 µM | 1.01
[1], 0.00457 µM | 0.96
[1], 0.01372 µM | 0.795
[1], 0.04115 µM | 0.516
[1], 0.1235 µM | 0.425
[1], 0.3704 µM | 0.363
[1], 1.111 µM | 0.318
[1], 3.333 µM | 0.206
[1], 10 µM | 0.00297
[2], 0.00017 µM | 1.01
[2], 0.00051 µM | 0.984
[2], 0.00152 µM | 0.982
[2], 0.00457 µM | 0.99
[2], 0.01372 µM | 0.999
[2], 0.04115 µM | 0.996
[2], 0.1235 µM | 0.959
[2], 0.3704 µM | 0.98
[2], 1.111 µM | 0.892
[2], 3.333 µM | 0.628
[2], 10 µM | 0.00473
[3], 0.00017 µM | 0.928
[3], 0.00051 µM | 0.877
[3], 0.00152 µM | 0.835
[3], 0.00457 µM | 0.819
[3], 0.01372 µM | 0.799
[3], 0.04115 µM | 0.761
[3], 0.1235 µM | 0.731
[3], 0.3704 µM | 0.68
[3], 1.111 µM | 0.518
[3], 3.333 µM | 0.268
[3], 10 µM | 0.0045
[4], 0.00017 µM | 1.13
[4], 0.00051 µM | 1.051
[4], 0.00152 µM | 1.1
[4], 0.00457 µM | 1.06
[4], 0.01372 µM | 1.08
[4], 0.04115 µM | 1.07
[4], 0.1235 µM | 1.11
[4], 0.3704 µM | 1.14
[4], 1.111 µM | 1.06
[4], 3.333 µM | 0.113
[4], 10 µM | 0.00267
[5], 0.00017 µM | 1.04
[5], 0.00051 µM | 1.06
[5], 0.00152 µM | 1.05
[5], 0.00457 µM | 1.05
[5], 0.01372 µM | 1.06
[5], 0.04115 µM | 1.047
[5], 0.1235 µM | 1.069
[5], 0.3704 µM | 1.065
[5], 1.111 µM | 0.973
[5], 3.333 µM | 0.381
[5], 10 µM | 0.0257
[6], 0.00017 µM | 0.911
[6], 0.00051 µM | 0.927
[6], 0.00152 µM | 0.95
[6], 0.00457 µM | 0.917
[6], 0.01372 µM | 0.929
[6], 0.04115 µM | 0.905
[6], 0.1235 µM | 0.917
[6], 0.3704 µM | 0.83
[6], 1.111 µM | 0.578
[6], 3.333 µM | 0.305
[6], 10 µM | -0.00247
[7], 0.00017 µM | 1.11
[7], 0.00051 µM | 1.13
[7], 0.00152 µM | 1.08
[7], 0.00457 µM | 1.07
[7], 0.01372 µM | 1.12
[7], 0.04115 µM | 1.1
[7], 0.1235 µM | 1.09
[7], 0.3704 µM | 1.02
[7], 1.111 µM | 0.884
[7], 3.333 µM | 0.706
[7], 10 µM | 0.0084
[8], 0.00017 µM | 0.978
[8], 0.00051 µM | 0.994
[8], 0.00152 µM | 0.968
[8], 0.00457 µM | 0.984
[8], 0.01372 µM | 0.951
[8], 0.04115 µM | 0.972
[8], 0.1235 µM | 0.981
[8], 0.3704 µM | 1
[8], 1.111 µM | 0.988
[8], 3.333 µM | 0.017
[8], 10 µM | 0.0071
[9], 0.00017 µM | 1.17
[9], 0.00051 µM | 1.16
[9], 0.00152 µM | 1.18
[9], 0.00457 µM | 1.15
[9], 0.01372 µM | 1.144
[9], 0.04115 µM | 1.17
[9], 0.1235 µM | 1.181
[9], 0.3704 µM | 1.07
[9], 1.111 µM | 0.871
[9], 3.333 µM | 0.609
[9], 10 µM | 0.001
[10], 0.00017 µM | 1.04
[10], 0.00051 µM | 1.05
[10], 0.00152 µM | 1.03
[10], 0.00457 µM | 1.03
[10], 0.01372 µM | 1.04
[10], 0.04115 µM | 1.02
[10], 0.1235 µM | 0.993
[10], 0.3704 µM | 0.81
[10], 1.111 µM | 0.587
[10], 3.333 µM | 0.416
[10], 10 µM | -0.00493
[11], 0.00017 µM | 0.952
[11], 0.00051 µM | 0.9234
[11], 0.00152 µM | 0.886
[11], 0.00457 µM | 0.813
[11], 0.01372 µM | 0.706
[11], 0.04115 µM | 0.665
[11], 0.1235 µM | 0.601
[11], 0.3704 µM | 0.494
[11], 1.111 µM | 0.406
[11], 3.333 µM | -0.00767
[11], 10 µM | -0.00903
[12], 0.00017 µM | 1.04
[12], 0.00051 µM | 1.03
[12], 0.00152 µM | 1.04
[12], 0.00457 µM | 1.04
[12], 0.01372 µM | 1.05
[12], 0.04115 µM | 1.045
[12], 0.1235 µM | 1.014
[12], 0.3704 µM | 0.962
[12], 1.111 µM | 0.745
[12], 3.333 µM | 0.597
[12], 10 µM | -0.00367
